Results from patent US12396458B2, “Fused ring substituted aromatic compound and preparation method therefor, herbicidal composition, and use thereof” (Qingdao Kingagroot Chemical Compound Co., Ltd., priority 2020, dated 2025).

What was measured:
Experiment in all cases: Weeding effect in post-emergence stage (greenhouse pot test)
Type in all cases: in vivo
Rorippa indica = settings: dose 7.5 g a.i./ha, fresh weight control rate
In short: (§1)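 Greenhouse pot plants sprayed at 2-3 leaf stage (2 weeks after sowing) with compound in acetone/Tween 80 plus 1.5 L/ha methyl oleate EC, at 500, 250, 125, 60, 15, 7.5 g a.i./ha. Fresh-weight growth control scored 3 weeks later on a 0-5 scale (level 5 >85%, level 0 <5%); three replicates averaged.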

Setaria viridis = settings: dose 7.5 g a.i./ha, fresh weight control rate
In short: as §1

Capsella bursa-pastoris = settings: 3 weeks after application, fresh weight control rate
In short: as §1

Conyza japonica = settings: fresh weight control rate
In short: as §1

Alopecurus japonicus = settings: 3 weeks after application, fresh weight control rate
In short: as §1

Eleusine indica = settings: dose 7.5 g a.i./ha, fresh weight control rate
In short: as §1

Beckmannia syzigachne = settings: 3 weeks after application, fresh weight control rate
In short: as §1

Digitaria sanguinalis = settings: dose 7.5 g a.i./ha, fresh weight control rate
In short: as §1

[1] = post-emergence control test, dose 7.5 g a.i./ha
[2] = post-emergence, dose 15 g a.i./ha, 3 weeks after application
[3] = post-emergence, dose 125 g a.i./ha, 3 weeks after application

Row | Structure (SMILES) | Activity level (growth control rate), Rorippa indica (Rorippa indica) | Activity level (growth control rate), Setaria viridis (Setaria viridis) | Activity level (growth control rate), Capsella bursa-pastoris (Capsella bursa-pastoris; dose 15 g a.i./ha) | Activity level (growth control rate), Conyza japonica (Conyza japonica; [1]) | Activity level (growth control rate), Conyza japonica (Conyza japonica; [2]) | Activity level (growth control rate), Alopecurus japonicus (Alopecurus japonicus; dose 15 g a.i./ha) | Activity level (growth control rate), Eleusine indica (Eleusine indica) | Activity level (growth control rate), Beckmannia syzigachne (Beckmannia syzigachne; dose 15 g a.i./ha) | Activity level (growth control rate), Digitaria sanguinalis (Digitaria sanguinalis) | Activity level (growth control rate), Capsella bursa-pastoris (Capsella bursa-pastoris; dose 125 g a.i./ha) | Activity level (growth control rate), Conyza japonica (Conyza japonica; [3]) | Activity level (growth control rate), Alopecurus japonicus (Alopecurus japonicus; dose 125 g a.i./ha) | Activity level (growth control rate), Beckmannia syzigachne (Beckmannia syzigachne; dose 125 g a.i./ha)
1 | CCOC(=O)C12CCCC1C(c1cc(-n3c(=O)n(C)c(=S)n(C)c3=O)c(F)cc1Cl)=NO2 (stereo not drawn) [Compound 3] | 5 (Level 5: growth control rate is above 85%) | 4 (Level 4: growth control rate is greater than or equal to 60% and less than 85%) | 5 (Level 5: growth control rate is above 85%) | 3 (Level 3: growth control rate is greater than or equal to 40% and less than 60%) | 4 (Level 4: growth control rate is greater than or equal to 60% and less than 85%) | 5 (Level 5: growth control rate is above 85%) | 4 (Level 4: growth control rate is greater than or equal to 60% and less than 85%) | 5 (Level 5: growth control rate is above 85%) | 4 (Level 4: growth control rate is greater than or equal to 60% and less than 85%) |  |  |  | 
2 | COC(=O)C12CCCC1C(c1cc(-n3c(=O)cc(C(F)(F)F)n(C)c3=O)c(F)cc1Cl)=NO2 (stereo not drawn) [Compound 209] | 5 (Level 5: growth control rate is above 85%) | 5 (Level 5: growth control rate is above 85%) | 5 (Level 5: growth control rate is above 85%) | 4 (Level 4: growth control rate is greater than or equal to 60% and less than 85%) | 5 (Level 5: growth control rate is above 85%) | 5 (Level 5: growth control rate is above 85%) | 5 (Level 5: growth control rate is above 85%) | 5 (Level 5: growth control rate is above 85%) | 5 (Level 5: growth control rate is above 85%) |  |  |  | 
3 | CCOC(=O)C12ON=C(c3cc(-n4c(=O)cc(C(F)(F)F)n(C)c4=O)c(F)cc3Cl)C1CCC2C (stereo not drawn) [Compound 476] |  |  | 5 (Level 5: growth control rate is above 85%) |  | 4 (Level 4: growth control rate is greater than or equal to 60% and less than 85%) | 5 (Level 5: growth control rate is above 85%) |  | 5 (Level 5: growth control rate is above 85%) |  |  |  |  | 
4 | CCOC(=O)C12ON=C(c3cc(-n4c(=O)cc(C(F)(F)F)n(C)c4=O)c(F)cc3Cl)C1CCC2CC (stereo not drawn) [Compound 477] |  |  | 5 (Level 5: growth control rate is above 85%) |  | 4 (Level 4: growth control rate is greater than or equal to 60% and less than 85%) | 5 (Level 5: growth control rate is above 85%) |  | 4 (Level 4: growth control rate is greater than or equal to 60% and less than 85%) |  |  |  |  | 
5 | COC(=O)C12CCCC1C(c1cc(-n3c(=S)cc(C(F)(F)F)n(C)c3=O)c(F)cc1Cl)=NO2 (stereo not drawn) [Compound 498] |  |  | 5 (Level 5: growth control rate is above 85%) |  | 4 (Level 4: growth control rate is greater than or equal to 60% and less than 85%) | 5 (Level 5: growth control rate is above 85%) |  | 5 (Level 5: growth control rate is above 85%) |  |  |  |  | 
6 | COC(=O)C12CCCC1C(c1nc(-n3c(=O)cc(C(F)(F)F)n(C)c3=O)c(F)cc1Cl)=NO2 (stereo not drawn) [Compound 521] |  |  | 5 (Level 5: growth control rate is above 85%) |  | 4 (Level 4: growth control rate is greater than or equal to 60% and less than 85%) | 5 (Level 5: growth control rate is above 85%) |  | 5 (Level 5: growth control rate is above 85%) |  |  |  |  | 
7 | CCOC(=O)CCC12CCCC1C(c1cc(-n3c(=O)n(C)c(=S)n(C)c3=O)c(F)cc1Cl)=NO2 (stereo not drawn) [Compound 530] |  |  |  |  |  |  |  |  |  | 5 (Level 5: growth control rate is above 85%) | 4 (Level 4: growth control rate is greater than or equal to 60% and less than 85%) | 5 (Level 5: growth control rate is above 85%) | 4 (Level 4: growth control rate is greater than or equal to 60% and less than 85%)
8 | CCOC(=O)CCC12CCCC1C(c1cc(-n3c(=O)cc(C(F)(F)F)n(C)c3=O)c(F)cc1Cl)=NO2 (stereo not drawn) [Compound 533] |  |  |  |  |  |  |  |  |  | 5 (Level 5: growth control rate is above 85%) | 5 (Level 5: growth control rate is above 85%) | 5 (Level 5: growth control rate is above 85%) | 5 (Level 5: growth control rate is above 85%)
9 | COC(=O)C12CCCC1C(c1cc(N3C(=O)C4=C(CCCC4)C3=O)c(F)cc1Cl)=NO2 (stereo not drawn) [Compound 542] |  |  | 4 (Level 4: growth control rate is greater than or equal to 60% and less than 85%) |  | 4 (Level 4: growth control rate is greater than or equal to 60% and less than 85%) | 5 (Level 5: growth control rate is above 85%) |  | 4 (Level 4: growth control rate is greater than or equal to 60% and less than 85%) |  |  |  |  | 
10 | COC(=O)C12CCCC1C(c1cc(-c3ncc(C(F)(F)F)cc3Cl)c(F)cc1Cl)=NO2 (stereo not drawn) [Compound 585] |  |  | 5 (Level 5: growth control rate is above 85%) |  | 4 (Level 4: growth control rate is greater than or equal to 60% and less than 85%) | 5 (Level 5: growth control rate is above 85%) |  | 5 (Level 5: growth control rate is above 85%) |  |  |  |  | 
11 | CCOC(=O)C1(C)CC(c2cc(-n3c(=O)n(C)c(=S)n(C)c3=O)c(F)cc2Cl)=NO1 (stereo not drawn) [Control compound A, reference compound] | 2 (Level 2: growth control rate is greater than or equal to 20% and less than 40%) | 2 (Level 2: growth control rate is greater than or equal to 20% and less than 40%) |  | 2 (Level 2: growth control rate is greater than or equal to 20% and less than 40%) |  |  | 3 (Level 3: growth control rate is greater than or equal to 40% and less than 60%) |  | 2 (Level 2: growth control rate is greater than or equal to 20% and less than 40%) |  |  |  | 
12 | CCOC(=O)C1(C)CC(c2cc(-n3c(=O)cc(C(F)(F)F)n(C)c3=O)c(F)cc2Cl)=NO1 (stereo not drawn) [Control compound B, reference compound] | 2 (Level 2: growth control rate is greater than or equal to 20% and less than 40%) | 3 (Level 3: growth control rate is greater than or equal to 40% and less than 60%) |  | 2 (Level 2: growth control rate is greater than or equal to 20% and less than 40%) |  |  | 3 (Level 3: growth control rate is greater than or equal to 40% and less than 60%) |  | 2 (Level 2: growth control rate is greater than or equal to 20% and less than 40%) |  |  |  | 
